# Assay results published in ChEMBL document CHEMBL4649994.
# Several values for one entry are separate records, joined by “and”; a condition that tells them apart may be missing. Identical values can stand only once.
# Experiments:
# Conditions in all cases: Compound concentration 10.0 uM, Protein concentration 2.0 uM
# [1] = target: Transcription initiation factor TFIID subunit 1-like (Homo sapiens) (UniProt Q8IZX4)
# [2] = target: Bromodomain adjacent to zinc finger domain protein 2B (Homo sapiens) (UniProt Q9UIF8)
# [3] = target: Bromodomain testis-specific protein (Homo sapiens) (UniProt Q58F21)
# [4] = target: Bromodomain adjacent to zinc finger domain protein 1A (Homo sapiens) (UniProt Q9NRL2)
# [5] = target: Histone acetyltransferase KAT2B (Homo sapiens) (UniProt Q92831)
# [6] = target: Nucleosome-remodeling factor subunit BPTF (Homo sapiens) (UniProt Q12830)
# [7] = target: Tripartite motif-containing protein 66 (Homo sapiens) (UniProt O15016); experiment: Thermal Shift Assay. Domain start/stop: M1091-S1218
# [8] = target: Histone acetyltransferase p300 (Homo sapiens) (UniProt Q09472)
# [9] = target: Nuclear body protein SP140 (Homo sapiens) (UniProt Q13342)
# [10] = target: PH-interacting protein (Homo sapiens) (UniProt Q8WWQ0)
# [11] = target: SWI/SNF-related matrix-associated actin-dependent regulator of chromatin subfamily A member 2 (Homo sapiens) (UniProt P51531)
# [12] = target: Bromodomain-containing protein 3 (Homo sapiens) (UniProt Q15059); experiment: Thermal Shift Assay. Domain start/stop: P24-E144
# Peregrin (Homo sapiens) [13] = target: Peregrin (Homo sapiens) (UniProt P55201)
# [14] = target: Histone acetyltransferase KAT2A (Homo sapiens) (UniProt Q92830)
# [15] = target: CREB-binding protein (Homo sapiens) (UniProt Q92793)
# [16] = target: Chromatin remodeling regulator CECR2 (Homo sapiens) (UniProt Q9BXF3)
# [17] = target: Protein polybromo-1 (Homo sapiens) (UniProt Q86U86)
# [18] = target: ATPase family AAA domain-containing protein 2 (Homo sapiens) (UniProt Q6PL18)
# [19] = target: Transcription initiation factor TFIID subunit 1-like (Homo sapiens) (UniProt Q8IZX4); remark: listed apart in the source
# [20] = target: Protein polybromo-1 (Homo sapiens) (UniProt Q86U86); remark: listed apart in the source
# [21] = target: ATPase family AAA domain-containing protein 2B (Homo sapiens) (UniProt Q9ULI0)
# [22] = target: Transcription initiation factor TFIID subunit 1 (Homo sapiens) (UniProt P21675)
# [23] = target: Bromodomain and PHD finger-containing protein 3 (Homo sapiens) (UniProt Q9ULD4)
# [24] = target: Bromodomain-containing protein 2 (Homo sapiens) (UniProt P25440)
# [25] = target: Bromodomain-containing protein 9 (Homo sapiens) (UniProt Q9H8M2)
# Peregrin (Homo sapiens) [26] = target: Peregrin (Homo sapiens) (UniProt P55201); remark: listed apart in the source
# [27] = target: Protein polybromo-1 (Homo sapiens) (UniProt Q86U86); remark: listed apart in the source
# [28] = target: Protein polybromo-1 (Homo sapiens) (UniProt Q86U86); experiment: Thermal Shift Assay. Domain start/stop: H23-D159
# [29] = target: Bromodomain and WD repeat-containing protein 3 (Homo sapiens) (UniProt Q6RI45)
# [30] = target: Transcription initiation factor TFIID subunit 1 (Homo sapiens) (UniProt P21675); remark: listed apart in the source
# [31] = target: Histone-lysine N-methyltransferase ASH1L (Homo sapiens) (UniProt Q9NR48)
# [32] = target: Bromodomain-containing protein 3 (Homo sapiens) (UniProt Q15059)
# [33] = target: Transcription intermediary factor 1-beta (Homo sapiens) (UniProt Q13263)
# [34] = target: Protein polybromo-1 (Homo sapiens) (UniProt Q86U86); experiment: Thermal Shift Assay. Domain start/stop: R487-D598
# [35] = target: Transcription intermediary factor 1-alpha (Homo sapiens) (UniProt O15164)
# [36] = target: Bromodomain-containing protein 2 (Homo sapiens) (UniProt P25440); remark: listed apart in the source
# [37] = target: Bromodomain-containing protein 1 (Homo sapiens) (UniProt O95696)
# [38] = target: Bromodomain adjacent to zinc finger domain protein 2A (Homo sapiens) (UniProt Q9UIF9)
# [39] = target: Protein polybromo-1 (Homo sapiens) (UniProt Q86U86); remark: listed apart in the source
# [40] = target: SWI/SNF-related matrix-associated actin-dependent regulator of chromatin subfamily A member 4 (Homo sapiens) (UniProt P51532)
# [41] = target: Nuclear body protein SP140-like protein (Homo sapiens) (UniProt Q9H930)
# Sequence of Bromodomain-containing protein 2 (Homo sapiens) (P25440 whole entry, looked up): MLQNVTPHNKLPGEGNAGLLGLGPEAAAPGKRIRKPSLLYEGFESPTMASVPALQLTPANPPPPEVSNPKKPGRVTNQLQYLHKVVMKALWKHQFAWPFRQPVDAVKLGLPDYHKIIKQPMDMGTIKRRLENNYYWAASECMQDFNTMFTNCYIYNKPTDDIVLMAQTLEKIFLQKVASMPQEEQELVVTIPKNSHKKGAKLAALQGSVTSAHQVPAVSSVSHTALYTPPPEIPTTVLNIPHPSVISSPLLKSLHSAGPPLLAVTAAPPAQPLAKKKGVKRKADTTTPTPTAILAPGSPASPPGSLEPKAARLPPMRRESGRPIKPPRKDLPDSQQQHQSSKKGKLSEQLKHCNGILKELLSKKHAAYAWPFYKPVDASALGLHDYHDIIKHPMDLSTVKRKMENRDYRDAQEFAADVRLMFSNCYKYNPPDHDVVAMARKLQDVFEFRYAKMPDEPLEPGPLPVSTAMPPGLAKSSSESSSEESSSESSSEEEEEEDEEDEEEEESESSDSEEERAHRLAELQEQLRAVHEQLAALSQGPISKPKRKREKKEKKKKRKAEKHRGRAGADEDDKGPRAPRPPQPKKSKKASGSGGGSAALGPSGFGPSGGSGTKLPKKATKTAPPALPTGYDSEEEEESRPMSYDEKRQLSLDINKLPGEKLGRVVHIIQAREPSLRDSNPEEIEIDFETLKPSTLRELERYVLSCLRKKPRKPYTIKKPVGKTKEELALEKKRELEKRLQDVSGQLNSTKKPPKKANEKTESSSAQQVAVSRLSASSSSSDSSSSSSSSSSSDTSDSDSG
# Sequence of Protein polybromo-1 (Homo sapiens) (Q86U86 whole entry, the tested form may be a part): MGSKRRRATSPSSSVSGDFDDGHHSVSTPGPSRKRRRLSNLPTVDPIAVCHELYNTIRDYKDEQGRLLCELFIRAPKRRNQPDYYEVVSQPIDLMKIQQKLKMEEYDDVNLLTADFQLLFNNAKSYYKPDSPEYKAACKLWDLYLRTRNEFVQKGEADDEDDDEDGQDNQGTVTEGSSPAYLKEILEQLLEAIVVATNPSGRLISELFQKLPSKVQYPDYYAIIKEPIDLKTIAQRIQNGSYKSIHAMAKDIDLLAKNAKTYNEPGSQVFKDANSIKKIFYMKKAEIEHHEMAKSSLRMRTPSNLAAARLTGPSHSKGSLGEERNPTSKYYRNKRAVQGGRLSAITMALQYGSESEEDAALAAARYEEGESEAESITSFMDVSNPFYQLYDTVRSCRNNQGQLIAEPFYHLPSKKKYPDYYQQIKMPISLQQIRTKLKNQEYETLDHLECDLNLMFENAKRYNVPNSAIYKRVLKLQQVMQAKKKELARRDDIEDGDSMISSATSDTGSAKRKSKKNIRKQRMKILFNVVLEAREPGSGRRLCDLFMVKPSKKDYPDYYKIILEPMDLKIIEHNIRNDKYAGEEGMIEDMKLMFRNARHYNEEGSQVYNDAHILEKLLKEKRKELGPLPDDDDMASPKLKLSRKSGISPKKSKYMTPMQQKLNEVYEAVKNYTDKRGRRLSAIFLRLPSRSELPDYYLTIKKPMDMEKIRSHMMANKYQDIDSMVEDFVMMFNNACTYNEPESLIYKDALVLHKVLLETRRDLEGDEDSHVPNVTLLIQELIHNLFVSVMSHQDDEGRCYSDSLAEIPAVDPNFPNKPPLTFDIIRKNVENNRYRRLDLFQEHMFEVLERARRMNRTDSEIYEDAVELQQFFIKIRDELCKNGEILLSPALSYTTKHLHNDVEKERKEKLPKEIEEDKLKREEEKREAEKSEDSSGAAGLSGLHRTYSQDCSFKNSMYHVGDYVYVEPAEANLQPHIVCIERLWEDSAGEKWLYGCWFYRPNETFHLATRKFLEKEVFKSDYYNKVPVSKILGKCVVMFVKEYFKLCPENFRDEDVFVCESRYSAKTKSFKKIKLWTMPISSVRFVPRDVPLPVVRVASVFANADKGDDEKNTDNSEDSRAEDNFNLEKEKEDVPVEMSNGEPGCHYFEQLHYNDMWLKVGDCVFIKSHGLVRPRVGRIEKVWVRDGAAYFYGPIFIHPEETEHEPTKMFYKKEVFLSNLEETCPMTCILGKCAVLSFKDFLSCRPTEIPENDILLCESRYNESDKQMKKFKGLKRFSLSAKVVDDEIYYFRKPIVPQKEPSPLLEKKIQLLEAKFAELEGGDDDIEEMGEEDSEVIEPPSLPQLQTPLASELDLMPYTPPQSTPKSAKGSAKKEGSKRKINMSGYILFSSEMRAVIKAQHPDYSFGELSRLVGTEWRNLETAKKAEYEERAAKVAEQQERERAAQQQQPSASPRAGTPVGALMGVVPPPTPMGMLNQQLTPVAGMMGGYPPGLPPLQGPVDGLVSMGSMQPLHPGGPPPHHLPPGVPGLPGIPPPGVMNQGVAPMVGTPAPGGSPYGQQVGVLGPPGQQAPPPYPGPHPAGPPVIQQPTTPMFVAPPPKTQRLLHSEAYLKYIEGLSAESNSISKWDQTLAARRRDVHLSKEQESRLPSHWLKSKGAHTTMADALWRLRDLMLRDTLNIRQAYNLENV
# Sequence of Bromodomain-containing protein 3 (Homo sapiens) (Q15059 2-726 limits assumed): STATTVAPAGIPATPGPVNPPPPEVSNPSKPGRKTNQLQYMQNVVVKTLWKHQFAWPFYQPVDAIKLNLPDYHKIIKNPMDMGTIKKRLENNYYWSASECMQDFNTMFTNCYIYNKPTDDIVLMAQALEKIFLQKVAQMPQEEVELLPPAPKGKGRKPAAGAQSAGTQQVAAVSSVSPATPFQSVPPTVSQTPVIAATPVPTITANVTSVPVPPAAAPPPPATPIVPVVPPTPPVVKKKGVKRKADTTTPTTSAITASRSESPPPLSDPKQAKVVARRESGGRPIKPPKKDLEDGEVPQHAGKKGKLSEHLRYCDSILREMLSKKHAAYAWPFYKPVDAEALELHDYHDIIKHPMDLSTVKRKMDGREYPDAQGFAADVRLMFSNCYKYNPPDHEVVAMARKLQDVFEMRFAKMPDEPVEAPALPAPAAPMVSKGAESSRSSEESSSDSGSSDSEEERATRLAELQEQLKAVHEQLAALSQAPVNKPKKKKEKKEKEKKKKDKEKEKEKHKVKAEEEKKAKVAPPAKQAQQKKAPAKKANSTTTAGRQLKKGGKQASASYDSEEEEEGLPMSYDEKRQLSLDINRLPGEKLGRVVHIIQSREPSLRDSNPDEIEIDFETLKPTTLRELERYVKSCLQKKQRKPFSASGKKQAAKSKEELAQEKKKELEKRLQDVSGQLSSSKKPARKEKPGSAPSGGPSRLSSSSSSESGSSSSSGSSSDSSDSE
# Sequence of Transcription initiation factor TFIID subunit 1 (Homo sapiens) (P21675 whole entry): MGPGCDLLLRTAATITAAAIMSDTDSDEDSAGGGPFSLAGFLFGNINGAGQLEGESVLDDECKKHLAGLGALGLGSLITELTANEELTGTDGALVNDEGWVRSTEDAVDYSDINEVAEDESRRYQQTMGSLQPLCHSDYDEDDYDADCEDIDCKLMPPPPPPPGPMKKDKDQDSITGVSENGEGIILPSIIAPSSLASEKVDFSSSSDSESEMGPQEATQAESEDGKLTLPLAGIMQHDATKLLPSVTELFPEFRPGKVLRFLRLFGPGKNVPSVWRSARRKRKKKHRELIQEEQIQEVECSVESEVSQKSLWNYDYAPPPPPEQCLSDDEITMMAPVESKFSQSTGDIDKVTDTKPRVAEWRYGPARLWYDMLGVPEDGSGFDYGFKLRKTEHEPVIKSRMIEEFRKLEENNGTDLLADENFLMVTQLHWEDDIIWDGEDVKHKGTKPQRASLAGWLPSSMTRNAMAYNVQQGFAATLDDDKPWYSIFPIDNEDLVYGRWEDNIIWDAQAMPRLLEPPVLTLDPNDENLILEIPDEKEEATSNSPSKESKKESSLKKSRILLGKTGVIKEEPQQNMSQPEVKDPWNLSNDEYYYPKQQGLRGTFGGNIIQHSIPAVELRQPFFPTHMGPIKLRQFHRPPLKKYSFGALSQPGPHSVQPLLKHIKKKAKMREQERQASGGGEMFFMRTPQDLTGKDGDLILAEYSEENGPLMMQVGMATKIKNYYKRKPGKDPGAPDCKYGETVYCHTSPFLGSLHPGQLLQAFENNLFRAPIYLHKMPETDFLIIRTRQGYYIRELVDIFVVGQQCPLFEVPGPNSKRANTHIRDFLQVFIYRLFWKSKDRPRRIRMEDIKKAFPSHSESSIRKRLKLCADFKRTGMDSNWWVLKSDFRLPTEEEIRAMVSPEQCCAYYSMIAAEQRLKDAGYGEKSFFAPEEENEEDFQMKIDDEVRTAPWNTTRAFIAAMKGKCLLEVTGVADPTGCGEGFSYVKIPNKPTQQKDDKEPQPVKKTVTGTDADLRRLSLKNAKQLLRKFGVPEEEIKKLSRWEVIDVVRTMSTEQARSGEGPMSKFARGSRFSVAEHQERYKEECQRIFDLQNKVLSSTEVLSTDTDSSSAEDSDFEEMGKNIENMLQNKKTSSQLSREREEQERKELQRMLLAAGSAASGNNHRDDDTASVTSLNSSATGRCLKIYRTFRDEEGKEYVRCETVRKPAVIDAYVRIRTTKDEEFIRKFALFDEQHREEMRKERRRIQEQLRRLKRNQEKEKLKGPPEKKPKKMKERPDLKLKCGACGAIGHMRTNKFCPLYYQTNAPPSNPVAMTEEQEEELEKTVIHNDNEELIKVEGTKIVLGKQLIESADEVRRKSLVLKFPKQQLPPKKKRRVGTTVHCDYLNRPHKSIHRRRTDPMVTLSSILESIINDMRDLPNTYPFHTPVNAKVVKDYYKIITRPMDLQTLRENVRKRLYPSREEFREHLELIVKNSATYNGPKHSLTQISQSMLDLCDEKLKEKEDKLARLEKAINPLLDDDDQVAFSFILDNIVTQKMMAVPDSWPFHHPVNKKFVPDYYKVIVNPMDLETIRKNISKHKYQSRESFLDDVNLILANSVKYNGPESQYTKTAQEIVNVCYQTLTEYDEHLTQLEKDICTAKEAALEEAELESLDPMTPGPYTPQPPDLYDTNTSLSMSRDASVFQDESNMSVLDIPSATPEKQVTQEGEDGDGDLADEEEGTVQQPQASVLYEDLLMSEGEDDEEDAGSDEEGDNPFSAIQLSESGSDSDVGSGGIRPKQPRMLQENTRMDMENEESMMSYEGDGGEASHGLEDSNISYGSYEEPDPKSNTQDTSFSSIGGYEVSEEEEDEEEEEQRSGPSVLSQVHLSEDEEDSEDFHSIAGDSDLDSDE
compound,measurement,setting,value
COc1ccccc1S(=O)(=O)Nc1ccc2c(c1)CN(C)C(=O)N2,ΔTm,[1],0.52 °C
same,ΔTm,[2],0.66 °C and 0.25 °C
same,ΔTm,[3],2.08 °C
same,ΔTm,[4],1.62 °C
same,ΔTm,[5],-0.1 °C and 0.81 °C
same,ΔTm,[6],0.44 °C
same,ΔTm,[7],0.42 °C
same,ΔTm,[8],2.71 °C
same,ΔTm,[9],0.1 °C
same,ΔTm,[10],1.07 °C
same,ΔTm,[11],0.49 °C
same,ΔTm,[12],3.99 °C and 5.24 °C
same,ΔTm,Peregrin (Homo sapiens) [13],0.68 °C
same,ΔTm,[14],0.43 °C
same,ΔTm,[15],2.09 °C and 2.66 °C
same,ΔTm,[16],-0.22 °C
same,ΔTm,[17],0.83 °C and -0.18 °C
same,ΔTm,[18],0.71 °C
same,ΔTm,[19],0.78 °C
same,ΔTm,[20],0.62 °C
same,ΔTm,[21],0.1 °C
same,ΔTm,[22],-0.08 °C
same,ΔTm,[23],1.72 °C
same,ΔTm,[24],4.61 °C and 3.1 °C
same,ΔTm,[25],1.96 °C
same,ΔTm,Peregrin (Homo sapiens) [26],2.42 °C
same,ΔTm,[27],0.99 °C
same,ΔTm,[28],0.75 °C
same,ΔTm,[29],0.16 °C
same,ΔTm,[30],0.62 °C
same,ΔTm,[31],-0.34 °C
same,ΔTm,[32],4.59 °C and 5.45 °C
same,ΔTm,[33],0.29 °C
same,ΔTm,[34],1.03 °C
same,ΔTm,[35],0.57 °C
same,ΔTm,[36],5.32 °C
same,ΔTm,[37],1.19 °C and 0.62 °C
same,ΔTm,[38],1.02 °C
same,ΔTm,[39],-0.18 °C
same,ΔTm,[40],0.51 °C
same,ΔTm,[41],0.12 °C
